Test system: carnations
Experiment: Preservation of cut carnations in vases of distilled water with one additive each
Assay type: in vivo
Settings: one cut carnation per vase, one teaspoon of additive in 1 cup distilled water; for order in which the flowers collapsed: collapsed = flower fell to a side of the stem
Method: The materials in the experiment used included seven vases; one cutting knife; one teaspoon each of lemon-lime soda, sugar, aspirin, house bleach, vitamins, a sports drink, including citric acid, potassium, sodium, sugar and water, eight cups of warm distilled water, and seven fresh carnations Each of the seven vases were filled with 1 cup of distilled water. One teaspoon of each additive was added to its own separate vase of distilled water. One vase only contained distilled water because it was used as the control group. Each carnation was cut on the end at a slant. […] Referring to FIG. 3, the conditions of each flower were recorded after every 24-hour period on a scale from “1” to “10.” Scores between “7” to “10” are “good,” scores between “4” to “6” are “fair,” and scores between “0” to “3” are poor. […] A flower was “collapsed” when it decayed to a point where the flower 14 fell to a side of the stem 18. Aspirin is recommended to preserve flowers by many florists because it lowers the PH level of water, making it more acidic. Acid helps water move more easily up the tubes in a flower's stem 18. However, some florists argue that aspirin can damage flowers, which this experiment supported. Bleach was used in the experiment because bleach kills bacteria, which is harmful to flowers. However, the bleach and water solution only preserved its flower for ten out of nineteen days. […] The carnation with vitamins and water solution may have collapsed because of bacteria growth that developed in the vase. The control group (water only) preserved its carnation for an average length of thirteen days. […] All three solutions contained sugar, a vital substance needed by plants to carry out photosynthesis. The flower with the lemon lime soda lasted for sixteen days, and the flower with sugar lasted for eighteen days. The sports drink and water was the solution that preserved its flower the longest, approximately twenty-nine days.

| Compound | order in which the flowers collapsed | time the flower was preserved (until collapse) (condition recorded every 24 hours) |
| --- | --- | --- |
| CC(=O)Oc1ccccc1C(=O)O [aspirin] | first flowers to collapse | – |
| sugar | last three flowers to remain fresh | eighteen |

Source: US20070066483A1, “Plant Nourishing” (priority 2004, published 2007)
